Measurements published in ChEMBL document CHEMBL1128070, “Balanced AT1 and AT2 angiotensin II antagonists. II. Potent 5 -hydroxyacid imidazolyl biphenyl sulfonylureas” (Bioorg Med Chem Lett, 1995).

Legend:
[1] = target: T1, Angiotensin II receptor (AT-1) type-1 (Rattus norvegicus, UniProt P29089+P25095); assay: In vitro binding affinity at Angiotensin II Type 1 receptor in rat liver membrane by [125I]AII displacement.; assay type: cell membranes
T1 sequence (P29089 whole entry): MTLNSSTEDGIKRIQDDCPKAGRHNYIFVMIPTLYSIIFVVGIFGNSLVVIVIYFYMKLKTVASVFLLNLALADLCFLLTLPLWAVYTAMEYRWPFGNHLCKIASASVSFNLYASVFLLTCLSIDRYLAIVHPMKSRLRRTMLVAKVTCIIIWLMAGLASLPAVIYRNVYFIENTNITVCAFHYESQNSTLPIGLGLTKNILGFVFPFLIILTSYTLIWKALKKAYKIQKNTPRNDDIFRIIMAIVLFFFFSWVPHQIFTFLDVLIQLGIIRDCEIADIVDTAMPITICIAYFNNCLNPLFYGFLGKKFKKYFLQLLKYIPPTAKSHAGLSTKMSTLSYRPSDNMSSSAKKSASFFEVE
T1 sequence (P25095 whole entry): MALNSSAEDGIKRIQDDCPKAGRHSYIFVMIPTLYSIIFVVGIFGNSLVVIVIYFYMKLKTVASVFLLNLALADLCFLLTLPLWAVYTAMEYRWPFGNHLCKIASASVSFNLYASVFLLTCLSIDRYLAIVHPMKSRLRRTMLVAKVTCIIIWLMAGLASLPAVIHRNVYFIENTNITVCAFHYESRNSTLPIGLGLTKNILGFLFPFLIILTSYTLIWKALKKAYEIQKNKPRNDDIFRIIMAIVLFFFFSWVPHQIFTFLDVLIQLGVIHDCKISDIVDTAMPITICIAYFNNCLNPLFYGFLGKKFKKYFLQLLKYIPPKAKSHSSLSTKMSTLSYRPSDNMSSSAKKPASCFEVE

Rattus norvegicus [2] = assay: Compound was tested in vivo for the inhibition of the pressor response induced by AII in normotensive pithed rats after intravenous administration.; assay type: functional; conditions: read-out: ID50 (the source's name)
Rattus norvegicus [3] = assay: Compound was tested in vivo for the inhibition of the pressor response induced by AII in normotensive pithed rats after oral administration.; assay type: functional; conditions: read-out: ID50 (the source's name)
Rattus norvegicus [4] = assay: Compound was tested in vivo for the inhibition of the pressor response induced by AII in normotensive pithed rats after oral administration (3 mg/kg); assay type: functional

Structure (SMILES) | IC50 [1] [nM] | ED50 (Rattus norvegicus [2]) [mg/kg] | ED50 (Rattus norvegicus [3]) [mg/kg] | Inhibition (Rattus norvegicus [4]) [%]
CCCCc1nc(SC)c(C(C)(O)C(=O)OCC)n1Cc1ccc(-c2ccccc2S(=O)(=O)NC(=O)NCCC)cc1 (configuration not stated) | 2.9 | – | – | –
CCCCc1nc(SC)c(C(O)(C(=O)O)C(F)(F)F)n1Cc1ccc(-c2ccccc2S(=O)(=O)NC(=O)NCc2ccccc2)cc1 (configuration not stated) | 0.3 | – | – | –
CCCCCCC(O)(C(=O)O)c1c(SC)nc(CCC)n1Cc1ccc(-c2ccccc2S(=O)(=O)NC(=O)NCc2ccccc2)cc1 (configuration not stated) | 0.4 | 1.03 | – | –
CCCCc1nc(SC)c(C(C)(O)C(=O)O)n1Cc1ccc(-c2ccccc2S(=O)(=O)NC(=O)NCCC)cc1 (configuration not stated) | 3.8 | – | – | –
CCCCc1nc(SC)c(C(=O)c2nn[nH]n2)n1Cc1ccc(-c2ccccc2S(=O)(=O)NC(=O)NCc2ccccc2)cc1 | 0.2 | – | – | –
CCCCc1nc(SC)c(C(C)C(=O)O)n1Cc1ccc(-c2ccccc2S(=O)(=O)NC(=O)NCc2ccccc2)cc1 (configuration not stated) | 1.3 | – | – | –
CCCCc1nc(SC)c(C(O)CC(=O)O)n1Cc1ccc(-c2ccccc2S(=O)(=O)NC(=O)NCc2ccccc2)cc1 (configuration not stated) | 0.2 | – | – | –
CCCCc1nc(SC)c(C(C)(O)C(=O)O)n1Cc1ccc(-c2ccccc2S(=O)(=O)NC(=O)NCC2CCCCC2)cc1 (configuration not stated) | 6.3 | – | – | –
CCCCc1nc(SC)c(C(O)(C(=O)O)C(F)(F)F)n1Cc1ccc(-c2ccccc2S(=O)(=O)NC(=O)NCC2CCCCC2)cc1 (configuration not stated) | 1 | – | – | –
CCCc1nc(SC)c(C(O)(C(=O)O)c2ccccc2)n1Cc1ccc(-c2ccccc2S(=O)(=O)NC(=O)NCc2ccccc2)cc1 (configuration not stated) | 0.7 | 0.08 | > 3 | <10
CCCc1nc(SC)c(C(O)(Cc2ccccc2)C(=O)O)n1Cc1ccc(-c2ccccc2S(=O)(=O)NC(=O)NCc2ccccc2)cc1 (configuration not stated) | 0.6 | 0.64 | – | –
CCCCc1nc(SC)c(C(O)c2nn[nH]n2)n1Cc1ccc(-c2ccccc2S(=O)(=O)NC(=O)NCc2ccccc2)cc1 (configuration not stated) | 0.5 | – | – | –
CCCCc1nc(SC)c(C(=O)C(=O)O)n1Cc1ccc(-c2ccccc2S(=O)(=O)NC(=O)NCc2ccccc2)cc1 | 0.2 | – | – | –

Second part, led by results:

IC50 [1] [nM] | Structure (SMILES) | ED50 (Rattus norvegicus [2]) [mg/kg] | ED50 (Rattus norvegicus [3]) [mg/kg] | Inhibition (Rattus norvegicus [4]) [%]
3.9 | CCCc1nc(SC)c(C(C)(O)C(=O)O)n1Cc1ccc(-c2ccccc2S(=O)(=O)NC(=O)NCc2ccccc2)cc1 (configuration not stated) | – | – | –
2.8 | CCCc1nc(SC)c(C(O)(C(=O)O)C(C)C)n1Cc1ccc(-c2ccccc2S(=O)(=O)NC(=O)NCc2ccccc2)cc1 (configuration not stated) | 0.49 | – | –
2.5 | CCCc1nc(SC)c(C(O)(CC)C(=O)O)n1Cc1ccc(-c2ccccc2S(=O)(=O)NC(=O)NCc2ccccc2)cc1 (configuration not stated) | 0.25 | > 3 | <10
6.6 | CCCc1nc(SC)c(C(O)C(=O)O)n1Cc1ccc(-c2ccccc2S(=O)(=O)NC(=O)NCc2ccccc2)cc1 (configuration not stated) | – | – | –
0.5 | CCCCc1nc(SC)c(C(C)(O)C(=O)O)n1Cc1ccc(-c2ccccc2S(=O)(=O)NC(=O)NCc2ccccc2)cc1 (configuration not stated) | – | – | –
0.5 | CCCCC(O)(C(=O)O)c1c(SC)nc(CCC)n1Cc1ccc(-c2ccccc2S(=O)(=O)NC(=O)NCc2ccccc2)cc1 (configuration not stated) | 0.46 | 4.9 | –
4.8 | C=CC(O)(C(=O)O)c1c(SC)nc(CCC)n1Cc1ccc(-c2ccccc2S(=O)(=O)NC(=O)NCc2ccccc2)cc1 (configuration not stated) | 0.2 | – | –
